# Measured values reported in patent US20260256751A1, “COMBINATION OF BETA-2-ADRENERGIC RECEPTOR AGONISTS AND GLP-1 RECEPTOR AGONISTS FOR USE IN TREATING HYPERGLYCAEMIA” (ATROGI AB, priority 2023, published 2026).
# Assays:
# [1] = system: differentiated L6-myotubes; experiment: Glucose uptake screen (Biological example 1 of WO 2019/053427); assay type: cell-based; details: compound at 10 μM, activity relative to isoproterenol at 10 μM; for Emax at 10 µM: read-out: Biological example 1 of WO 2019/053427 (GU)
# Method in brief: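 Rat L6 myoblasts were differentiated into myotubes over 7 days in 2% FBS, then serum-starved overnight. Cells were stimulated with 1×10^−5 M compound plus β2 antagonist ICI-118551 for 1 h 40 min and re-dosed for 20 min in glucose-free medium. Uptake of 50 nM ^3H-2-deoxyglucose over 10 min was counted after NaOH lysis.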
# [2] = system: differentiated L6-myotubes; experiment: cAMP production relative to isoprenaline (Biological example 2 of WO 2019/053427); assay type: cell-based; details: compound at 10 μM, activity relative to isoproterenol at 10 μM; for Emax at 10 µM: 0.25 h
# Method in brief: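 Differentiated L6 myotubes stimulated 15 min with test compound or isoprenaline, each at final 1×10^−5 M, in HBSS with 1% BSA, 5 mM HEPES, 1 mM IBMX, pH 7.4. cAMP production by the compound expressed relative to that induced by the same concentration of isoprenaline.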
Structure (SMILES),Emax at 10 µM [1] [%],Emax at 10 µM [2] [%],Biological example 1 of WO 2019/053427 (GU) [1],Biological example of WO 2019/053427 (cAMP) [2]
"CCC[C@@H]1CCC[C@@H]([C@@H](O)c2cccc(Cl)c2)N1 [Compound 114, (S)-[(2S,6R)-6-propyl-2-piperidyl](m-chlorophenyl)methanol]",25 to 50,< 25,,
"CCC[C@@H]1CCC[C@@H]([C@H](O)c2cccc(Cl)c2)N1 [Compound 115, (R)-[(2S,6R)-6-propyl-2-piperidyl](m-chlorophenyl)methanol]",> 75,< 25,,
"CCC[C@@H]1CCC[C@@H]([C@H](O)c2cccc(F)c2)N1 [Compound 116, (R)-[(2S,6R)-6-propyl-2-piperidyl](m-fluorophenyl)methanol]",25 to 50,< 25,,
"CC(C)(C)CNC[C@H](O)c1cccc(F)c1 [Compound 117, (R)-1-(m-flurophenyl)-2-(neopentylamino)-1-ethanol]",25 to 50,< 25,,
"O[C@@H](CNC1(C(F)(F)F)CC1)c1cccc(F)c1 [Compound 118, (R)-1-(m-fluorophenyl)-2-[1-(trifluoromethyl)cyclopro-pylamino]-1-ethanol]",50 to 75,< 25,,
"CCC[C@H]1CCC[C@@H]([C@@H](O)c2cccc(F)c2)N1 [Compound 119, (S)-[(2S,6S)-6-propyl-2-piperidyl](m-fluorophenyl)methanol]",25 to 50,< 25,,
"CCC[C@H]1CCC[C@@H]([C@H](O)c2cccc(F)c2)N1 [Compound 120, (R)-[(2S,6S)-6-propyl-2-piperidyl](m-fluorophenyl)methanol]",50 to 75,< 25,,
"CCC[C@H]1CCC[C@@H]([C@@H](O)c2cccc(O)c2)N1 [Compound 121, (S)-[(2S,6S)-6-propyl-2-piperidyl](m-hydroxyphenyl)methanol]",> 75,< 25,,
"CCC[C@H]1CCC[C@@H]([C@H](O)c2cccc(O)c2)N1 [Compound 122, (R)-[(2S,6S)-6-propyl-2-piperidyl](m-hydroxyphenyl)methanol]",50 to 75,< 25,,
"CCC[C@H]1CCC[C@@H]([C@H](O)c2cccc(Cl)c2)N1 [Compound 123, (R)-[(2S,6S)-6-propyl-2-piperidyl](m-chlorophenyl)methanol]",25 to 50,< 25,,
"CCC[C@H]1CC[C@H]([C@H](O)c2cccc(F)c2)N1 [Compound 124, (R)-[(2R,5S)-5-propyl-2-pyrrolidinyl](m-fluorophenyl)methanol]",50 to 75,< 25,,
"CCC[C@H]1CC[C@H]([C@H](O)c2cccc(O)c2)N1 [Compound 125, m-{(R)-[(2R,5S)-5-propyl-2-pyrrolidinyl]hydroxymeth-yl}phenol]",50 to 75,< 25,,
"CCC[C@@H]1CC[C@H]([C@@H](O)c2cccc(F)c2)N1 [Compound 126, (S)-[(2R,5R)-5-propyl-2-pyrrolidinyl](m-fluorophenyl)methanol]",25 to 50,< 25,,
"CCC[C@@H]1CC[C@H]([C@@H](O)c2cccc(O)c2)N1 [Compound 127, m-{(S)-[(2R,5R)-5-propyl-2-pyrrolidinyl]hydroxymeth-yl}phenol]",25 to 50,< 25,,
"CCC[C@H]1CCC[C@H]([C@H](O)c2cccc(Cl)c2)N1 [Compound 128, (R)-[(2R,6S)-6-propyl-2-piperidyl](m-chlorophenyl)methanol]",25 to 50,< 25,,
"CCC[C@H]1CCC[C@H]([C@@H](O)c2cccc(Cl)c2)N1 [Compound 129, (S)-[(2R,6S)-6-propyl-2-piperidyl](m-chlorophenyl)methanol]",25 to 50,< 25,,
CCC[C@H]1CC[C@@H]([C@H](O)c2cccc(F)c2)N1 [Compound 130],25 to 50,< 25,,
"CCC[C@H]1CC[C@@H]([C@@H](O)c2cccc(F)c2)N1 [Compound 131, (S)-[(2S,5S)-5-propyl-2-pyrrolidinyl](m-fluorophenyl)methanol]",50 to 75,< 25,,
"CCC[C@@H]1CC[C@@H]([C@H](O)c2cccc(F)c2)N1 [Compound 132, (R)-[(2S,5R)-5-propyl-2-pyrrolidinyl](m-fluorophenyl)methanol]",25 to 50,< 25,,
"CCC[C@@H]1CC[C@@H]([C@@H](O)c2cccc(F)c2)N1 [Compound 133, (S)-[(2S,5R)-5-propyl-2-pyrrolidinyl](m-fluorophenyl)methanol]",50 to 75,< 25,,
"CC(C)(C)NCC(O)c1ccncc1O (stereo not shown) [Compound 134, 4-[2-(tert-butylamino)-1-hydroxyethyl]-3-pyridinol]",> 75,< 25,,

Structure (SMILES),Emax at 10 µM [1] [%],Emax at 10 µM [2] [%],Biological example 1 of WO 2019/053427 (GU) [1],Biological example of WO 2019/053427 (cAMP) [2]
"CCC[C@H]1CCC[C@H]([C@H](O)c2ccccc2Cl)N1 [Compound 135, (R)-[(2R,6S)-6-propyl-2-piperidyl](o-chlorophenyl)methanol]",25 to 50,< 25,,
"CCC[C@@H]1CCC[C@@H]([C@H](O)c2cccc(O)c2)N1 [Compound 136, (R)-[(2S,6R)-6-propyl-2-piperidyl](m-hydroxyphenyl)methanol]",> 75,< 25,,
"CCC[C@@H]1CCC[C@H]([C@@H](O)c2cccc(O)c2)N1 [Compound 137, (S)-[(2R,6R)-6-propyl-2-piperidyl](m-hydroxyphenyl)methanol]",25 to 50,< 25,,
"CC(C)(C)NC[C@H](O)c1cncc(Cl)c1 [Compound 138, (R)-2-(tert-butylamino)-1-(5-chloro-3-pyridyl)-1-ethanol]",> 75,> 75,,
"CCC[C@H]1CCC[C@H]([C@@H](O)c2cncc(F)c2)N1 [Compound 139, (S)-[(2R,6S)-6-propyl-2-piperidyl](5-fluoro-3-pyridyl)methanol]",< 25,< 25,,
"CCC[C@H]1CCC[C@H]([C@H](O)c2cncc(F)c2)N1 [Compound 140, (R)-[(2R,6S)-6-propyl-2-piperidyl](5-fluoro-3-pyridyl)methanol]",< 25,< 25,,
"CCC[C@@H]1CC[C@H]([C@H](O)c2cccc(Cl)c2)N1 [Compound 141, (R)-[(2R,5R)-5-propyl-2-pyrrolidinyl](m-chlorophenyl)methanol]",50 to 75,< 25,,
"CC1(C)CC[C@@H]([C@H](O)c2cccc(O)c2)N1 [Compound 142, m-{(R)-[(S)-5,5-dimethyl-2-pyrrolidinyl]hydroxymeth-yl}phenol]",25 to 50,< 25,,
"CC1(C)CC[C@@H]([C@@H](O)c2cccc(O)c2)N1 [Compound 143, m-{(S)-[(S)-5,5-dimethyl-2-pyrrolidinyl]hydroxymeth-yl}phenol]",< 25,< 25,,
"CC1(C)CC[C@@H]([C@H](O)c2cccc(F)c2)N1 [Compound 144, (R)-[(S)-5,5-dimethyl-2-pyrrolidinyl](m-fluorophenyl)methanol]",< 25,< 25,,
"CC1(C)CC[C@@H]([C@@H](O)c2cccc(F)c2)N1 [Compound 145, (S)-[(S)-5,5-dimethyl-2-pyrrolidinyl](m-fluorophenyl)methanol]",25 to 50,< 25,,
"CC(C)(C)NC[C@H](O)c1ncccc1Cl [Compound 146, (S)-2-(tert-butylamino)-1-(3-chloro-2-pyridyl)-1-ethanol]",25 to 50,< 25,,
"CC(C)(C)NC[C@H](O)c1ccc(Cl)cn1 [Compound 147, (S)-2-(tert-butylamino)-1-(5-chloro-2-pyridyl)-1-ethanol]",25 to 50,< 25,,
"CCC[C@@H]1CC[C@H]([C@H](O)c2ccccc2Cl)N1 [Compound 148, (R)-[(2R,5R)-5-propyl-2-pyrrolidinyl](o-chlorophenyl)methanol]",> 75,< 25,,
"CC(C)(C)NC[C@H](O)c1ccc(F)c(N)c1F [Compound 149, (R)-1-(3-amino-2,4-difluorophenyl)-2-(tert-butylamino)-1-ethanol]",> 75,25 to 50,,
"Cc1c(F)cccc1[C@@H](O)CNC(C)(C)C [Compound 150, (R)-2-(tert-butylamino)-1-(3-fluoro-2-tolyl)-1-ethanol]",> 75,25 to 50,,
"CC1(C)CC[C@H]([C@@H](O)c2ccccc2Cl)N1 [Compound 151, (S)-[(R)-5,5-dimethyl-2-pyrrolidinyl](o-chlorophenyl)methanol]",,< 25,− (less than 25%),
CC1(C)CC[C@H]([C@@H](O)c2ccccc2Cl)N1 [Compound 152],,,+++ (more than 75% of that of isoproterenol at 10 μM),− (less than 25%)
"CC1(C)CC[C@H]([C@@H](O)c2cccc(Cl)c2)N1 [Compound 153, (S)-[(R)-5,5-dimethyl-2-pyrrolidinyl](m-chlorophenyl)methanol]",25 to 50,< 25,,
"CC1(C)CC[C@H]([C@H](O)c2cccc(Cl)c2)N1 [Compound 154, (R)-[(R)-5,5-dimethyl-2-pyrrolidinyl](m-chlorophenyl)methanol]",> 75,< 25,,
